Experimental data published in ChEMBL document CHEMBL1134848, “Synthesis and biological evaluation of a spongistatin AB-spiroketal analogue” (2002).

Experiments:
Format in all cases: functional
BXPC-3 = experiment: In vitro growth inhibitory activity on human Pancreas-a (BXPC-3) cell line
DU-145 = experiment: In vitro growth inhibitory activity on human Prostate (DU-145) cell line
KM-20L2 = experiment: In vitro growth inhibitory activity on human Colon (KM20L2) cell line
MCF7 = experiment: In vitro growth inhibitory activity on human Breast adn (MCF-7) cell line
NCI-H460 = experiment: In vitro growth inhibitory activity on human Lung-NSC (NCI-H460) cell line
SF-268 = experiment: In vitro growth inhibitory activity on human CNS Gliobl (SF268) cell line

Measured: GI50

CC(=O)OC1CC(CCO)OC2(C1)CC(C)(O)CC(CO)O2 (single isomer, unassigned; (-))
> 10 µg/mL: all assays above

OCC1CCCC2(CCCC(CO)O2)O1 (single isomer, unassigned; (-))
> 10 µg/mL: all assays above
